Assay results taken from patent US20240254096A1, “ULTRAVIOLET AND VISIBLE RADIATION ABSORBING COMPOUNDS” (ELKIMIA INC., priority 2021, published 2024).

Assay: Thermal stability by Thermogravimetric Analysis (TGA)
Type: physicochemical
Settings: for T onset: by intersection points of tangents
Protocol: Briefly, the residual weight (%) of the compounds was measured at different temperatures, including 100° C. for water boiling, and other temperatures corresponding to extrusion processes, and the T onset (° C.) by intersection points of tangents was checked. The results are represented in Table 16 below, and in FIG. 6.

With `CCOC(=O)CNC1=C/C(=N/c2ccccc2)CC(C)(C)C1` [Formula 46] the “Residual weight % at different temperatures” value (100 (° C.)) was 99.4 w %, the “Residual weight % at different temperatures” value (190 (° C.)) was 99.1 w % and the “Residual weight % at different temperatures” value (210 (° C.)) was 98.4 w %. The “Residual weight % at different temperatures” value (250 (° C.)) was 52.4 w % and the T onset was 215.2 C.
With `CCOC(=O)CNC1=C/C(=N/c2ccc(Nc3ccccc3)cc2)CC(C)(C)C1` [Formula 47] the “Residual weight % at different temperatures” value (100 (° C.)) was 99.5 w %, the “Residual weight % at different temperatures” value (190 (° C.)) was 99.2 w % and the “Residual weight % at different temperatures” value (210 (° C.)) was 99.0 w %. For the same molecule, the “Residual weight % at different temperatures” value (250 (° C.)) was 79.5 w % and the T onset was 226.0 C.
For `CCOC(=O)CNC1=C/C(=N/c2ccc(N3CCOCC3)cc2)CC(C)(C)C1` [Formula 48], the “Residual weight % at different temperatures” value (100 (° C.)) was 99.2 w %, the “Residual weight % at different temperatures” value (190 (° C.)) was 98.8 w % and the “Residual weight % at different temperatures” value (210 (° C.)) was 97.8 w %. The “Residual weight % at different temperatures” value (250 (° C.)) was 72.9 w % and the T onset was 215.7 C.
In the case of `CCOC(=O)CNC1=C/C(=N/c2ccc(OCc3ccccc3)cc2)CC(C)(C)C1` [Formula 49], the “Residual weight % at different temperatures” value (100 (° C.)) is reported as 99.3 w %, the “Residual weight % at different temperatures” value (190 (° C.)) is reported as 97.8 w % and the “Residual weight % at different temperatures” value (210 (° C.)) is reported as 97.2 w %. The “Residual weight % at different temperatures” value (250 (° C.)) was 70.2 w % and the T onset was 215.3 C.
For `CCOC(=O)CNC1=C/C(=N/c2ccc(Oc3ccccc3)cc2)CC(C)(C)C1` [Formula 50], the “Residual weight % at different temperatures” value (100 (° C.)) was 99.2 w %, the “Residual weight % at different temperatures” value (190 (° C.)) was 98.1 w % and the “Residual weight % at different temperatures” value (210 (° C.)) was 97.9 w %. The “Residual weight % at different temperatures” value (250 (° C.)) was 69.3 w % and the T onset was 229.5 C.
In the case of `CCOC(=O)CNC1=C/C(=N/c2ccc(C(C)=O)cc2)CC(C)(C)C1` [Formula 51], the “Residual weight % at different temperatures” value (100 (° C.)) is reported as 99.5 w %, the “Residual weight % at different temperatures” value (190 (° C.)) is reported as 96.1 w % and the “Residual weight % at different temperatures” value (210 (° C.)) is reported as 85.8 w %. The “Residual weight % at different temperatures” value (250 (° C.)) was 65.1 w % and the T onset was 188.0 C.
In the case of `CCOC(=O)CNC1=C/C(=N/c2ccc(N(C)C)cc2)CC(C)(C)C1` [Formula 52], the “Residual weight % at different temperatures” value (100 (° C.)) is reported as 95.9 w %, the “Residual weight % at different temperatures” value (190 (° C.)) is reported as 92.4 w % and the “Residual weight % at different temperatures” value (210 (° C.)) is reported as 86.0 w %. For the same molecule, the “Residual weight % at different temperatures” value (250 (° C.)) was 63.2 w % and the T onset was 199.1 C.
For `CCOC(=O)CNC1=C/C(=N/c2ccc(OC(F)(F)F)cc2)CC(C)(C)C1` [Formula 53], the “Residual weight % at different temperatures” value (100 (° C.)) was 99.5 w %, the “Residual weight % at different temperatures” value (190 (° C.)) was 98.6 w % and the “Residual weight % at different temperatures” value (210 (° C.)) was 86.3 w %. For the same molecule, the “Residual weight % at different temperatures” value (250 (° C.)) was 40.5 w % and the T onset was 199.3 C.
For `CCOC(=O)CNC1=C/C(=N/c2ccc(NC(=O)OC(C)(C)C)cc2)CC(C)(C)C1` [Formula 54], the “Residual weight % at different temperatures” value (100 (° C.)) was 98.0 w %, the “Residual weight % at different temperatures” value (190 (° C.)) was 84.0 w % and the “Residual weight % at different temperatures” value (210 (° C.)) was 72.7 w %. The “Residual weight % at different temperatures” value (250 (° C.)) was 60.1 w % and the T onset was 176.7 C.
With `CCOC(=O)CNC1=C/C(=N/c2ccc(Cn3cncn3)cc2)CC(C)(C)C1` [Formula 55] the “Residual weight % at different temperatures” value (100 (° C.)) was 97.8 w %, the “Residual weight % at different temperatures” value (190 (° C.)) was 96.4 w % and the “Residual weight % at different temperatures” value (210 (° C.)) was 92.2 w %. The “Residual weight % at different temperatures” value (250 (° C.)) was 71.2 w % and the T onset was 205.0 C.
With `CCOC(=O)CNC1=C/C(=N/c2ccc3c(c2)OCCO3)CC(C)(C)C1` [Formula 56] the “Residual weight % at different temperatures” value (100 (° C.)) was 99.4 w %, the “Residual weight % at different temperatures” value (190 (° C.)) was 98.9 w % and the “Residual weight % at different temperatures” value (210 (° C.)) was 94.3 w %. The “Residual weight % at different temperatures” value (250 (° C.)) was 68.0 w % and the T onset was 207.6 C.
With `CCOC(=O)C1CSC2=C(CC(C)(C)C/C2=N\c2ccc(OCc3ccccc3)cc2)N1` (centres unmarked) [Formula 60] the “Residual weight % at different temperatures” value (100 (° C.)) was 97.8 w %, the “Residual weight % at different temperatures” value (190 (° C.)) was 85.6 w % and the “Residual weight % at different temperatures” value (210 (° C.)) was 77.0 w %. For the same molecule, the “Residual weight % at different temperatures” value (250 (° C.)) was 58.2 w % and the T onset was 168.9 C.
In the case of `CCOC(=O)C1CSC2=C(CC(C)(C)C/C2=N\c2ccc(Oc3ccccc3)cc2)N1` (centres unmarked) [Formula 61], the “Residual weight % at different temperatures” value (100 (° C.)) is reported as 99.0 w %, the “Residual weight % at different temperatures” value (190 (° C.)) is reported as 98.2 w % and the “Residual weight % at different temperatures” value (210 (° C.)) is reported as 92.6 w %. For the same molecule, the “Residual weight % at different temperatures” value (250 (° C.)) was 62.1 w % and the T onset was 205.0 C.
For `CCOC(=O)C1CSC2=C(CC(C)(C)C/C2=N\c2ccc(N3CCOCC3)cc2)N1` (centres unmarked) [Formula 62], the “Residual weight % at different temperatures” value (100 (° C.)) was 94.5 w %, the “Residual weight % at different temperatures” value (190 (° C.)) was 85.0 w % and the “Residual weight % at different temperatures” value (210 (° C.)) was 75.8 w %. For the same molecule, the “Residual weight % at different temperatures” value (250 (° C.)) was 54.0 w % and the T onset was 186.1 C.
With `C#Cc1ccc(/N=C2\CC(C)(C)CC3=C2SCC(C(=O)OCC)N3)cc1` (centres unmarked) [Formula 63] the “Residual weight % at different temperatures” value (100 (° C.)) was 98.7 w %, the “Residual weight % at different temperatures” value (190 (° C.)) was 97.3 w % and the “Residual weight % at different temperatures” value (210 (° C.)) was 88.4 w %. For the same molecule, the “Residual weight % at different temperatures” value (250 (° C.)) was 68.0 w % and the T onset was 197.4 C.
With `CCOC(=O)C1CSC2=C(CC(C)(C)C/C2=N\c2ccc(Nc3ccccc3)cc2)N1` (centres unmarked) [Formula 64] the “Residual weight % at different temperatures” value (100 (° C.)) was 97.2 w %, the “Residual weight % at different temperatures” value (190 (° C.)) was 87.7 w % and the “Residual weight % at different temperatures” value (210 (° C.)) was 80.3 w %. For the same molecule, the “Residual weight % at different temperatures” value (250 (° C.)) was 60.9 w % and the T onset was 187.0 C.
In the case of `CCOC(=O)C1CSC2=C(CC(C)(C)C/C2=N\c2ccc(Cn3cncn3)cc2)N1` (centres unmarked) [Formula 65], the “Residual weight % at different temperatures” value (100 (° C.)) is reported as 95.3 w %, the “Residual weight % at different temperatures” value (190 (° C.)) is reported as 91.7 w % and the “Residual weight % at different temperatures” value (210 (° C.)) is reported as 89.3 w %. For the same molecule, the “Residual weight % at different temperatures” value (250 (° C.)) was 80.3 w % and the T onset was 200.2 C.
For `COC(=O)C(Cc1ccccc1)NC1=C/C(=N/c2ccc(F)cc2)CC(C)(C)C1` (centres unmarked) [Formula 67], the “Residual weight % at different temperatures” value (100 (° C.)) was 99.4 w %, the “Residual weight % at different temperatures” value (190 (° C.)) was 92.9 w % and the “Residual weight % at different temperatures” value (210 (° C.)) was 82.0 w %. For the same molecule, the “Residual weight % at different temperatures” value (250 (° C.)) was 68.1 w % and the T onset was 190.5 C.
In the case of `COC(=O)C(Cc1ccccc1)NC1=C/C(=N/c2ccc(OC)cc2)CC(C)(C)C1` (centres unmarked) [Formula 68], the “Residual weight % at different temperatures” value (100 (° C.)) is reported as 97.9 w %, the “Residual weight % at different temperatures” value (190 (° C.)) is reported as 93.6 w % and the “Residual weight % at different temperatures” value (210 (° C.)) is reported as 87.3 w %. For the same molecule, the “Residual weight % at different temperatures” value (250 (° C.)) was 75.0 w % and the T onset was 197.2 C.
